Measured values as given in article PMC11245036 (bioRxiv, 2024).
Each block holds one compound with its values, some of them ahead of it.

Key:
[1] = target: GluA2(Q) subunit, as part of the fusion construct GluA2-γ2EM (rat) (UniProt P19491); assay: cryo-EM structure
[2] = target: T1, GluA2(Q) (Rattus norvegicus, UniProt P19491); assay: cryo-EM structure with glutamate and CTZ; format: cell-based
[3] = target: GluA2(E) (Rattus norvegicus, UniProt P19491, Q607E); assay: whole-cell patch clamp in HEK-293 cells, -60 mV; format: cell-based
[4] = target: GluA1 (Rattus norvegicus, UniProt P19490); assay: whole-cell patch clamp in HEK-293 cells, -60 mV; format: cell-based
Sequence of GluA1 (P19490 19-907): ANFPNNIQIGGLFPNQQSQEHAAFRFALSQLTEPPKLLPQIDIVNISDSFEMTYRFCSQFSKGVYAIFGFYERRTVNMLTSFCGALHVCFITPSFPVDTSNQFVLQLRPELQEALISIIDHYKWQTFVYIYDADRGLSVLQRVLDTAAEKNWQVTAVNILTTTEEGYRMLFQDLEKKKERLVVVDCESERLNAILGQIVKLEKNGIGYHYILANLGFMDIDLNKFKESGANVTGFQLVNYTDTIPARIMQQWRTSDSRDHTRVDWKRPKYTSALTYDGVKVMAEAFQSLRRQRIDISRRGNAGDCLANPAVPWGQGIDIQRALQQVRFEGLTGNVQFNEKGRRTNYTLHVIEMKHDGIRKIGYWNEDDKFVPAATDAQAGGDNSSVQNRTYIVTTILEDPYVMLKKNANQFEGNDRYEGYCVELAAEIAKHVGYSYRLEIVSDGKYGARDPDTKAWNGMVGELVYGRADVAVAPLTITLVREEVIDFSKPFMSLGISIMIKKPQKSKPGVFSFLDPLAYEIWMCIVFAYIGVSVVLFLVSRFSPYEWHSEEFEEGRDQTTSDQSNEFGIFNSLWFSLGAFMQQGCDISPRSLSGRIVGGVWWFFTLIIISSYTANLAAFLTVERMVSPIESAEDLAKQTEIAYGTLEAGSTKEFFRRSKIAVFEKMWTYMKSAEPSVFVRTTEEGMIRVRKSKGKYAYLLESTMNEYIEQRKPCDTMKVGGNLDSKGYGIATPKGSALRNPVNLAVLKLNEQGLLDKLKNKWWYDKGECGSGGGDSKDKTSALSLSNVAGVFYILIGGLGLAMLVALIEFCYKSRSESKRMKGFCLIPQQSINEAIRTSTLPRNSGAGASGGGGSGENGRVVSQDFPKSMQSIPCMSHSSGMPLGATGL

[5] = target: T1, GluA2(Q); assay: cryo-EM structure; format: binding

stoichiometry N [1]: 4
Compound: GluA2(Q) subunit, as part of the fusion construct GluA2-γ2EM (from UniProt P19491-2 22-883) (receptor)

IC50 [2]: 49 ± 2 µM
IC50 [3]: 25 ± 2 µM
IC50 [4]: 10 ± 2 µM
Compound: CC12CC3CC(C)(C1)CC(N)(C3)C2 [memantine]

Compound: NS(=O)(=O)c1cc2c(cc1Cl)NC(C1CC3C=CC1C3)NS2(=O)=O (centres unmarked) [CTZ]
cryo-EM structure (GluA2-γ2mem), 100 μM CTZ [5]: Glutamate (yellow), CTZ (purple), and memantine (cyan) are shown as space filling models.
